Measured values taken from BindingDB's records for doi:10.1016/0960-894X(95)00058-2 (1995).

Key:
[1] = molecular target: Squalene monooxygenase (Sus scrofa); assay: The compound was tested for its inhibitory activity against pig Squalene epoxidase at pH 7.4
[2] = molecular target: Squalene monooxygenase (Sus scrofa); assay: The compound was tested for its inhibitory activity against pig Squalene epoxidase at pH 8.8

IC50 [1]: 109 µM | IC50 [2]: 32 µM
Structure (SMILES): CC(C)=CCC/C(=C/CC/C(C)=C/CC/C=C(\C)CC/C=C(\C)CCC=C(C)C)CN [6,11,15,19-tetramethyl-2-(4-methyl-3-pentenyl)-(2Z,6E,10E,14E)-2,6,10,14,18-icosapentaen-1-amine]
